Where two headings read alike, the source gives them in different places.
How the values were obtained:
[1] = test system: marine bacteria strain S3; experiment: disc inhibition assay, strain S3; format: cell-based, Erythrobacter aquimaris; settings: for zone of inhibition at 50 µg/disc: Qipengyuania aquimaris, S3, 24 h
Procedure: (§1) The disc inhibition assay was used. This assay is a conventional method routinely used for screening antibacterial compounds to determine degree of susceptibility to antibacterial compounds. The diameter of the zone of inhibition is proportional to the degree of susceptibility of the bacterial strain. The compounds were tested against 13 strains of marine bacteria isolated from Singapore coastal waters.
(§2) 13 strains of marine bacteria were isolated from fouling communities located in the coastal waters around Singapore. These were characterized in earlier studies and reported in Teo et al. (U.S. patent application Ser. No. 11/265,833) and Choong et al (in prep). In addition, four reference bacterial strains were added tested: Escherichia coli (Strain K12, ATCC 15222), E. coli (strain DH5a), Pseudomonas aeruginosa (strain LMG 12228; ATCC 15692) and P. putida (strain KT2440; ATCC 47054). All the bacteria were also tested against five antibiotics: ampicillin (AMP), tetracycline (TETR), erythromycin (ERY), chloramphenicol (CHL) and streptomycin (STREP).
(§3) Disks comprising the compounds to be tested were prepared as follows. The antibacterial assay, the pure compounds were made up to a concentration of 2 mgml^−1 in DMSO. 25 μl of the stock was pipetted onto each 6 mm sterile disc (Macherey-Nagel #484000) to obtain 50 μg of compound per disc. Equivalent volume of DMSO was used inoculated for the control.
(§4) For all disk inhibition assays, bacterial cultures were grown in marine broth (Pronadisa #1217.00). Sterile swabs dipped into the cultures were used to inoculate Marine Agar plates with a bacterial lawn by smearing the culture over the surface. After inoculating the plates, discs with antibiotics, pharmaceuticals or control blanks were placed on each plate. Each concentration of antibiotic or pharmaceutical was tested with two replicates. After the disks were placed on the agar surface, plates were incubated overnight in the dark at 35° C. After incubation, plates were examined for zones of inhibition or clearing around control and treated disks. The diameter of any zone of clearing or inhibition was measured using Vernier calipers. There were two replicates per treatment, and the average was taken.

[2] = test system: marine bacteria strain S9; experiment: disc inhibition assay, strain S9; format: cell-based, Bacillus algicola; settings: for zone of inhibition at 50 µg/disc: Guptibacillus algicola, S9, 24 h
Procedure: as §1, §2, §3, §4

[3] = test system: marine bacteria strain S16; experiment: disc inhibition assay, strain S16; format: cell-based, Pseudoalteromonas piscicida; settings: for zone of inhibition at 50 µg/disc: Pseudoalteromonas piscicida, S16, 24 h
Procedure: as §1, §2, §3, §4

[4] = test system: marine bacteria strain S29; experiment: disc inhibition assay, strain S29; format: cell-based, Bacillus hwajinpoensis; settings: for zone of inhibition at 50 µg/disc: Guptibacillus hwajinpoensis, S29, 24 h
Procedure: as §1, §2, §3, §4

[5] = test system: marine bacteria strain S4; experiment: disc inhibition assay, strain S4; format: cell-based, Bacillus algicola; settings: for zone of inhibition at 50 µg/disc: Guptibacillus algicola, S4, 24 h
Procedure: as §1, §2, §3, §4

[6] = test system: marine bacteria strain S17; experiment: disc inhibition assay, strain S17; format: cell-based, Gordonia terrae; settings: for zone of inhibition at 50 µg/disc: Gordonia terrae, S17, 24 h
Procedure: as §1, §2, §3, §4

[7] = test system: marine bacteria strain S18; experiment: disc inhibition assay, strain S18; format: cell-based, Microbacterium esteraromaticum; settings: for zone of inhibition at 50 µg/disc: Microbacterium esteraromaticum, S18, 24 h
Procedure: as §1, §2
(§5) Disks comprising the compounds to be tested were prepared as follows. The antibacterial assay, the pure compounds were made up to a concentration of 2 mgml^−1 in DMSO. […] Equivalent volume of DMSO was used inoculated for the control.
as §4

[8] = test system: marine bacteria strain S27; experiment: disc inhibition assay, strain S27; format: cell-based, Tenacibaculum lutimaris; settings: strain 27, 50 μg of compound per disc
Procedure: as §1, §2, §3, §4

[9] = test system: marine bacteria strain S1; experiment: disc inhibition assay, strain S1; format: cell-based, Rhodovulum iodosum; settings: for zone of inhibition at 50 µg/disc: Rhodovulum iodosum, S1
Procedure: as §1, §2, §3, §4

[10] = test system: marine bacteria strain S14; experiment: disc inhibition assay, strain S14; format: cell-based, Vibrio probioticus; settings: strain 14, 50 μg of compound per disc
Procedure: as §1, §2, §5, §4

[11] = test system: marine bacteria strain S10; experiment: disc inhibition assay, strain S10; format: cell-based, Halobacillus trueperi; settings: for zone of inhibition at 50 µg/disc: Halobacillus trueperi, S10, 24 h
Procedure: as §1, §2, §3, §4

[12] = test system: marine bacteria strain S28; experiment: disc inhibition assay, strain S28; format: cell-based, Arthrobacter protophormial; settings: for zone of inhibition at 50 µg/disc: Arthrobacter, S28, 24 h
Procedure: as §1, §2, §3, §4

[13] = test system: marine bacteria strain S30; experiment: disc inhibition assay, strain S30; format: cell-based, Bacillus borophilicus; settings: for zone of inhibition at 50 µg/disc: Bacillus, S30, 24 h
Procedure: as §1, §2, §3, §4

[14] = strain 1, 50 μg of compound per disc

SMILES: COC1(c2ccc(Cl)cc2)CC[N+](C)(CCC(C(=O)N(C)C)(c2ccccc2)c2ccccc2)CC1 (stereo not drawn) [Compound 5.2, N,O-dimethyl Loperamide]
- zone of inhibition at 50 µg/disc [1]: 5 to 10 mm
- zone of inhibition at 50 µg/disc [2]: 5 to 10 mm
- zone of inhibition at 50 µg/disc [3]: 2 to 5 mm
- zone of inhibition at 50 µg/disc [4]: 5 to 10 mm
- zone of inhibition at 50 µg/disc [5]: 5 to 10 mm
- zone of inhibition at 50 µg/disc [6]: 2 to 5 mm
- zone of inhibition at 50 µg/disc [7]: > 10 mm
- zone of inhibition [8]: −
- zone of inhibition at 50 µg/disc [9]: 2 to 5 mm
- antibacterial activity in words ([9]; strain S1, text): had activity
- zone of inhibition [10]: −
- zone of inhibition at 50 µg/disc [11]: 5 to 10 mm
- zone of inhibition at 50 µg/disc [12]: 5 to 10 mm
- zone of inhibition at 50 µg/disc [13]: 5 to 10 mm

SMILES: CN(C)C(=O)C(CC[N+]1(C)CCC(O)(c2ccc(Cl)cc2)CC1)(c1ccccc1)c1ccccc1 (stereo not drawn) [Compound 4.7]
- zone of inhibition at 50 µg/disc [1]: 5 to 10 mm
- zone of inhibition at 50 µg/disc [2]: 5 to 10 mm
- zone of inhibition at 50 µg/disc [3]: 2 to 5 mm
- zone of inhibition at 50 µg/disc [4]: 5 to 10 mm
- zone of inhibition at 50 µg/disc [5]: 5 to 10 mm
- zone of inhibition at 50 µg/disc [6]: 2 to 5 mm
- zone of inhibition at 50 µg/disc [7]: 2 to 5 mm
- zone of inhibition [8]: −
- zone of inhibition [9, 14]: −
- zone of inhibition [10]: −
- zone of inhibition at 50 µg/disc [11]: 5 to 10 mm
- zone of inhibition at 50 µg/disc [12]: 5 to 10 mm
- zone of inhibition at 50 µg/disc [13]: 2 to 5 mm

SMILES: CCCCCC(=O)N1CCCCC1 [Compound 11.1]
- zone of inhibition ([1]; strain 3, 50 μg of compound per disc): −
- zone of inhibition ([2]; strain 9, 50 μg of compound per disc): −
- zone of inhibition at 50 µg/disc ([3]; strain 16, 50 μg of compound per disc, read-out: zone of inhibition): 5 to 10 mm
- antibacterial activity in words ([3]; strain S16): susceptible
- zone of inhibition ([4]; strain 29, 50 μg of compound per disc): −
- zone of inhibition ([5]; strain 4, 50 μg of compound per disc): −
- zone of inhibition ([6]; strain 17, 50 μg of compound per disc): −
- zone of inhibition ([7]; strain 18, 50 μg of compound per disc): −
- zone of inhibition [8]: −
- zone of inhibition [9, 14]: −
- zone of inhibition [10]: −
- zone of inhibition ([11]; strain 10, 50 μg of compound per disc): −
- zone of inhibition ([12]; strain 28, 50 μg of compound per disc): −
- zone of inhibition ([13]; strain 30, 50 μg of compound per disc): −

SMILES: C=CCCCCC(CCCC)C(=O)N1CCCCC1 (stereo not drawn) [Compound 12.7]
- zone of inhibition at 50 µg/disc ([1]; strain 3, 50 μg of compound per disc, read-out: zone of inhibition): > 10 mm
- zone of inhibition at 50 µg/disc ([2]; strain 9, 50 μg of compound per disc, read-out: zone of inhibition): 5 to 10 mm
- zone of inhibition ([3]; strain 16, 50 μg of compound per disc): −
- zone of inhibition at 50 µg/disc ([4]; strain 29, 50 μg of compound per disc, read-out: zone of inhibition): 2 to 5 mm
- zone of inhibition at 50 µg/disc ([5]; strain 4, 50 μg of compound per disc, read-out: zone of inhibition): 5 to 10 mm
- zone of inhibition at 50 µg/disc ([6]; strain 17, 50 μg of compound per disc, read-out: zone of inhibition): 5 to 10 mm
- zone of inhibition at 50 µg/disc ([7]; strain 18, 50 μg of compound per disc, read-out: zone of inhibition): > 10 mm
- zone of inhibition at 50 µg/disc ([8]; Tenacibaculum lutimaris, S27, 24 h, read-out: zone of inhibition): 2 to 5 mm
- zone of inhibition at 50 µg/disc ([9]; strain 1, 50 μg of compound per disc, read-out: zone of inhibition): 2 to 5 mm
- zone of inhibition [10]: −
- zone of inhibition at 50 µg/disc ([11]; strain 10, 50 μg of compound per disc, read-out: zone of inhibition): 5 to 10 mm
- zone of inhibition at 50 µg/disc ([12]; strain 28, 50 μg of compound per disc, read-out: zone of inhibition): 2 to 5 mm
- zone of inhibition at 50 µg/disc ([13]; strain 30, 50 μg of compound per disc, read-out: zone of inhibition): 2 to 5 mm

Source: US20160311788A1, “Antifouling Compounds And Use Thereof” (National University of Singapore, priority 2008, published 2016)
